Experimental data published in PubChem BioAssay (NCI).
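Results reflect a 48-hour exposure of cells in 96-well plates to compound at five concentrations. Here, GI50 denotes the concentration required for 50% inhibition of growth. TGI denotes the concentration required for complete inhibition of growth.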

Experiments:
Assay in all cases: NCI anticancer screen, dose series, 48 h
[1] = test system: SK-MEL-5 melanoma
[2] = test system: OVCAR-8 ovarian
[3] = test system: LOX IMVI melanoma
[4] = test system: UO-31 renal
[5] = test system: SF-539 CNS
[6] = test system: T-47D breast
[7] = test system: NCI/ADR-RES ovarian
[8] = test system: HS 578T breast
[9] = test system: EKVX NSCLC
[10] = test system: MALME-3M melanoma
[11] = test system: CCRF-CEM leukemia
[12] = test system: SW-620 colon
[13] = test system: NCI-H460 lung
[14] = test system: 786-0 renal
[15] = test system: MDA-MB-231 breast
[16] = test system: HOP-92 NSCLC
[17] = test system: M14 melanoma
[18] = test system: DU-145 prostate
[19] = test system: COLO 205 colon
[20] = test system: HCC-2998 colon
[21] = test system: NCI-H23 lung
[22] = test system: BT-549 breast
[23] = test system: HL-60(TB) leukemia
[24] = test system: RXF 393 renal
[25] = test system: IGROV1 ovarian
[26] = test system: SF-268 CNS
[27] = test system: SK-MEL-28 melanoma
[28] = test system: OVCAR-5 ovarian
[29] = test system: A498 renal

Compound `CC(=O)Nc1cc(F)cc(-c2ccc3[nH]cc(-c4ccccc4)c3n2)c1` has a GI50 [1] of 4.07 µM, a TGI [1] of 15 µM and a GI50 [2] of 6.16 µM. For the same compound, the TGI [2] was 44.3 µM, the GI50 [3] was 1.75 µM and the TGI [3] was 3.39 µM. For the same compound, the GI50 [4] was 3.88 µM, the TGI [4] was 14.8 µM and the GI50 [5] was 2.97 µM. The TGI [5] was 10.7 µM, the GI50 [6] was 4.77 µM and the TGI [6] was 29.1 µM. It also gave a GI50 [7] of 3.99 µM, a TGI [7] of 23 µM and a GI50 [8] of 5.01 µM. The TGI [8] was 47.7 µM, the GI50 [9] was 4.71 µM and the TGI [9] was 21.5 µM. The GI50 [10] was 3.5 µM, the TGI [10] was 12.8 µM and the GI50 [11] was 3.42 µM. For the same compound, the TGI [11] was 17.9 µM, the GI50 [12] was 3.31 µM and the TGI [12] was 25.3 µM. It also gave a GI50 [13] of 3.37 µM, a TGI [13] of 14.6 µM and a GI50 [14] of 2.22 µM. For the same compound, the TGI [14] was 5.65 µM, the GI50 [15] was 3.46 µM and the TGI [15] was 12.7 µM. The GI50 [16] was 2.97 µM, the TGI [16] was 9.63 µM and the GI50 [17] was 2.65 µM. The TGI [17] was 7.85 µM, the GI50 [18] was 5.52 µM and the TGI [18] was 17.9 µM. For the same compound, the GI50 [19] was 2.17 µM, the TGI [19] was 4.69 µM and the GI50 [20] was 2.11 µM. The TGI [20] was 4.71 µM, the GI50 [21] was 4.98 µM and the TGI [21] was 20 µM. For the same compound, the GI50 [22] was 4.78 µM, the TGI [22] was 17 µM and the GI50 [23] was 2.72 µM. It also gave a TGI [23] of 10.7 µM, a GI50 [24] of 2.5 µM and a TGI [24] of 7.97 µM. For the same compound, the GI50 [25] was 5.04 µM, the TGI [25] was 21.1 µM and the GI50 [26] was 5.12 µM. It also gave a TGI [26] of 22 µM, a GI50 [27] of 2.43 µM and a TGI [27] of 6.13 µM. For the same compound, the GI50 [28] was 4.92 µM, the TGI [28] was 22.1 µM and the GI50 [29] was 3.75 µM. The TGI [29] was 12.7 µM.
